Test results: US8952024B2, “Herbicidal pyrimidone derivatives” (E I du Pont de Nemours and Company, priority 2009, dated 2015)
Where two headings read alike, the source gives them in different places.

Key:
Type in all cases: in vivo
[1] = system: corn (Zea mays); experiment: Test A pre-/postemergence plant response; conditions: Zea mays, 240 h; for plant injury at 125 g/ha / Corn plant response rating (crop injury, 0 = no effect, 100 = complete kill) at 125 g/ha: 125 g ai/ha; for plant injury at 125 g/ha / Corn plant response rating (crop injury, 0 = no effect, 100 = complete kill) at 500 g/ha: approx. ten days; for plant injury at 125 g/ha: read-out: Corn plant response rating; for Corn plant response rating (crop injury, 0 = no effect, 100 = complete kill) at 500 g/ha: 500 g ai/ha
How it was run: (§1)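 Injury scores (0, no effect; 100, complete control) come from visual comparison with untreated controls roughly ten days post-treatment. Test chemicals in a surfactant-containing non-phytotoxic solvent were applied as a directed soil spray preemergence and to one- to two-leaf seedlings postemergence.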

[2] = system: pigweed (Amaranthus retroflexus); experiment: Test A pre-/postemergence plant response; conditions: Amaranthus retroflexus, 240 h; for pest or weed control at 125 g/ha: 125 g ai/ha; for pest or weed control at 500 g/ha: 500 g ai/ha
How it was run: as §1

[3] = system: giant foxtail (Setaria faberii); experiment: Test A pre-/postemergence plant response; conditions: Setaria faberi, 240 h; for pest or weed control at 125 g/ha: 125 g ai/ha; for pest or weed control at 500 g/ha: 500 g ai/ha
How it was run: as §1

[4] = system: barnyardgrass (Echinochloa crus-galli); experiment: Test A pre-/postemergence plant response; conditions: Echinochloa crus-galli, 240 h; for pest or weed control at 125 g/ha: 125 g ai/ha; for pest or weed control at 500 g/ha: 500 g ai/ha
How it was run: as §1

[5] = system: rice (Oryza sativa); experiment: Test B flooded paddy test; conditions: Oryza sativa; for plant injury at 250 g/ha: 250 g ai/ha, flooded paddy test, visual rating on 0 to 100 scale (0 no effect, 100 complete control) after 13 to 15 days, read-out: Plant response rating, Flood, Rice; for plant injury at 31 g/ha / plant injury at 62 g/ha / plant injury at 125 g/ha: Flood (flooded paddy test), 13 to 15 days, read-out: Plant response rating, Rice; for plant injury at 31 g/ha: 31 g ai/ha, scale of 0 to 100 where 0 is no effect and 100 is complete control; for plant injury at 62 g/ha: 62 g ai/ha; for plant injury at 62 g/ha / plant injury at 125 g/ha: scale 0 to 100, 0 is no effect, 100 is complete control; for plant injury at 125 g/ha: 125 g ai/ha
How it was run: (§2)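 Plants were grown to the 2-leaf stage, then pots were flooded to 3 cm above the soil and compounds were applied directly into the paddy water. That depth was held throughout. After 13 to 15 days in a greenhouse, injury was visually rated against controls on a 0–100 scale.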

[6] = system: umbrella sedge (Cyperus difformis); experiment: Test B flooded paddy test; conditions: Cyperus difformis, 360 h; for pest or weed control at 250 g/ha: 250 g ai/ha, flooded paddy test, visual rating on 0 to 100 scale (0 no effect, 100 complete control) after 13 to 15 days, read-out: Plant response rating, Flood, Sedge, Umbrella; for pest or weed control at 31 g/ha / pest or weed control at 62 g/ha / pest or weed control at 125 g/ha: Flood (flooded paddy test), 13 to 15 days, read-out: Plant response rating, Sedge, Umbrella; for pest or weed control at 31 g/ha: 31 g ai/ha, scale of 0 to 100 where 0 is no effect and 100 is complete control; for pest or weed control at 62 g/ha: 62 g ai/ha; for pest or weed control at 62 g/ha / pest or weed control at 125 g/ha: scale 0 to 100, 0 is no effect, 100 is complete control; for pest or weed control at 125 g/ha: 125 g ai/ha
How it was run: as §2

[7] = system: ducksalad (Heteranthera limosa); experiment: Test B flooded paddy test; conditions: Heteranthera limosa, 360 h; for pest or weed control at 250 g/ha: 250 g ai/ha, flooded paddy test, visual rating on 0 to 100 scale (0 no effect, 100 complete control) after 13 to 15 days, read-out: Plant response rating, Flood, Ducksalad; for pest or weed control at 31 g/ha / pest or weed control at 62 g/ha / pest or weed control at 125 g/ha: Flood (flooded paddy test), 13 to 15 days, read-out: Plant response rating, Ducksalad; for pest or weed control at 31 g/ha: 31 g ai/ha, scale of 0 to 100 where 0 is no effect and 100 is complete control; for pest or weed control at 62 g/ha: 62 g ai/ha; for pest or weed control at 62 g/ha / pest or weed control at 125 g/ha: scale 0 to 100, 0 is no effect, 100 is complete control; for pest or weed control at 125 g/ha: 125 g ai/ha
How it was run: as §2

[8] = system: barnyardgrass (Echinochloa crus-galli); experiment: Test B flooded paddy test; conditions: Echinochloa crus-galli, 360 h; for pest or weed control at 250 g/ha: 250 g ai/ha, flooded paddy test, visual rating on 0 to 100 scale (0 no effect, 100 complete control) after 13 to 15 days, read-out: Plant response rating, Flood, Barnyardgrass; for pest or weed control at 31 g/ha / pest or weed control at 62 g/ha / pest or weed control at 125 g/ha: Flood (flooded paddy test), 13 to 15 days, read-out: Plant response rating, Barnyardgrass; for pest or weed control at 31 g/ha: 31 g ai/ha, scale of 0 to 100 where 0 is no effect and 100 is complete control; for pest or weed control at 62 g/ha: 62 g ai/ha; for pest or weed control at 62 g/ha / pest or weed control at 125 g/ha: scale 0 to 100, 0 is no effect, 100 is complete control; for pest or weed control at 125 g/ha: 125 g ai/ha
How it was run: as §2

[9] = post-emergence, Postemergence, visual injury, 0 to 100 scale (0 no effect, 100 complete control)
[10] = post-emergence, Postemergence, 0 to 100 scale, 0 = no effect, 100 = complete control
[11] = pre-emergence, Preemergence, 0 to 100 scale, 0 = no effect, 100 = complete control
[12] = pre-emergence, Preemergence, visual injury, 0 to 100 scale (0 no effect, 100 complete control)
[13] = post-emergence, Postemergence, visual injury, 0 to 100 scale (0 no effect, 100 complete control), approx. ten days, read-out: Pigweed plant response rating
[14] = post-emergence, Postemergence, 0 to 100 scale, 0 = no effect, 100 = complete control, approx. ten days, read-out: Plant response rating, Pigweed
[15] = post-emergence, Postemergence, visual injury, 0 to 100 scale (0 no effect, 100 complete control), approx. ten days, read-out: Foxtail, Giant plant response rating
[16] = post-emergence, Postemergence, 0 to 100 scale, 0 = no effect, 100 = complete control, approx. ten days, read-out: Plant response rating, Foxtail, Giant
[17] = pre-emergence, Preemergence, 0 to 100 scale, 0 = no effect, 100 = complete control, read-out: Plant response rating, Foxtail, Giant
[18] = pre-emergence, Preemergence, visual injury, 0 to 100 scale (0 no effect, 100 complete control), approx. ten days, read-out: Plant response rating, Foxtail, Giant
[19] = post-emergence, Postemergence, visual injury, 0 to 100 scale (0 no effect, 100 complete control), approx. ten days, read-out: Barnyardgrass plant response rating
[20] = post-emergence, Postemergence, 0 to 100 scale, 0 = no effect, 100 = complete control, approx. ten days, read-out: Plant response rating, Barnyardgrass
[21] = pre-emergence, Preemergence, 0 to 100 scale, 0 = no effect, 100 = complete control, read-out: Plant response rating, Barnyardgrass
[22] = pre-emergence, Preemergence, visual injury, 0 to 100 scale (0 no effect, 100 complete control), approx. ten days, read-out: Plant response rating, Barnyardgrass

CCn1ncc(C(=O)c2cnc(-c3ccccc3)n(Cc3ccccc3)c2=O)c1O [Compound 20, 5-[(1-ethyl-5-hydroxy-1H-pyrazol-4-yl)carbonyl]-2-phenyl-3-(phenylmethyl)-4(3H)-pyrimidinone]
60%: pest or weed control at 250 g/ha [6] | pest or weed control at 31 g/ha [7] | pest or weed control at 62 g/ha [7]
15%: plant injury at 250 g/ha [5]
20%: pest or weed control at 500 g/ha [3, 18] | pest or weed control at 500 g/ha [4, 22]
10%: Corn plant response rating (crop injury, 0 = no effect, 100 = complete kill) at 500 g/ha [1, 10] | pest or weed control at 125 g/ha [2, 13] | pest or weed control at 500 g/ha [4, 20]
50%: pest or weed control at 500 g/ha [2, 14] | pest or weed control at 125 g/ha [6]
40%: pest or weed control at 62 g/ha [6]
75%: pest or weed control at 250 g/ha [7]
65%: pest or weed control at 125 g/ha [7]
0%: plant injury at 125 g/ha [1, 9] | Corn plant response rating (crop injury, 0 = no effect, 100 = complete kill) at 125 g/ha [1, 11] | Corn plant response rating (crop injury, 0 = no effect, 100 = complete kill) at 500 g/ha [1, 12] | pest or weed control at 125 g/ha ([2]; pre-emergence, Preemergence, 0 to 100 scale, 0 = no effect, 100 = complete control, read-out: Plant response rating, Pigweed) | pest or weed control at 125 g/ha [3, 15] | pest or weed control at 500 g/ha [3, 16] | pest or weed control at 125 g/ha [3, 17] | pest or weed control at 125 g/ha [4, 19] | pest or weed control at 125 g/ha [4, 21] | plant injury at 31 g/ha [5] | plant injury at 62 g/ha [5] | plant injury at 125 g/ha [5] | pest or weed control at 31 g/ha [6] | pest or weed control at 250 g/ha [8] | pest or weed control at 31 g/ha [8] | pest or weed control at 62 g/ha [8] | pest or weed control at 125 g/ha [8]

CCn1ncc(C(=O)c2cnc(-c3ccccc3)n(Cc3ccccc3)c2=O)c1OS(=O)(=O)c1ccc(C)cc1 [Compound 21, 5-[[1-ethyl-5-[[(4-methylphenyl)sulfonyl]oxy]-1H-pyrazol-4-yl]carbonyl]-2-phenyl-3-(phenylmethyl)-4(3H)-pyrimidinone]
60%: pest or weed control at 125 g/ha [6] | pest or weed control at 31 g/ha [7]
0%: plant injury at 125 g/ha [1, 9] | Corn plant response rating (crop injury, 0 = no effect, 100 = complete kill) at 500 g/ha [1, 10] | Corn plant response rating (crop injury, 0 = no effect, 100 = complete kill) at 125 g/ha [1, 11] | Corn plant response rating (crop injury, 0 = no effect, 100 = complete kill) at 500 g/ha [1, 12] | pest or weed control at 125 g/ha [2, 13] | pest or weed control at 125 g/ha [3, 15] | pest or weed control at 500 g/ha [3, 16] | pest or weed control at 125 g/ha [3, 17] | pest or weed control at 125 g/ha [4, 19] | pest or weed control at 125 g/ha [4, 21] | pest or weed control at 500 g/ha [4, 22] | plant injury at 250 g/ha [5] | plant injury at 31 g/ha [5] | plant injury at 62 g/ha [5] | plant injury at 125 g/ha [5] | pest or weed control at 250 g/ha [8] | pest or weed control at 31 g/ha [8] | pest or weed control at 62 g/ha [8] | pest or weed control at 125 g/ha [8]
40%: pest or weed control at 31 g/ha [6]
10%: pest or weed control at 500 g/ha [3, 18] | pest or weed control at 500 g/ha [4, 20]
75%: pest or weed control at 250 g/ha [7]
70%: pest or weed control at 500 g/ha ([2]; pre-emergence, Preemergence, visual injury, 0 to 100 scale (0 no effect, 100 complete control), approx. ten days, read-out: Plant response rating, Pigweed) | pest or weed control at 62 g/ha [7] | pest or weed control at 125 g/ha [7]
65%: pest or weed control at 250 g/ha [6]
50%: pest or weed control at 500 g/ha [2, 14] | pest or weed control at 62 g/ha [6]
